Test results published in ChEMBL document CHEMBL5614443, “Hybrids of 3-Hydroxypyridin-4(1H)-ones and Long-Chain 4-Aminoquinolines as Potent Biofilm Inhibitors of Pseudomonas aeruginosa Potentiate Tobramycin and Polymyxin B Activity” (J Med Chem, 2024).
Activity calls are given as the source filed them. The rule behind the calls is not given here.

Tests used:
Pseudomonas aeruginosa [1] = experiment: Antibacterial activity against Pseudomonas aeruginosa PAO1 assessed as inhibition of bacterial growth incubated for 24 hrs by CLSI protocol based method; assay type: functional
Pseudomonas aeruginosa [2] = experiment: Antibiofilm activity against Pseudomonas aeruginosa PAO1 assessed as inhibition of biofilm formation incubated for 24 hrs by crystal violet staining based analysis; assay type: functional, organism-based; conditions: PAO1, 24 h
Pseudomonas aeruginosa [3] = experiment: Antibacterial activity against Pseudomonas aeruginosa PAO1 assessed as bacterial survival rate at 1/2 MIC incubated for 24 hrs by LB agar plate method relative to control; assay type: functional
Pseudomonas aeruginosa [4] = experiment: Antibacterial activity against Pseudomonas aeruginosa PAO1 infected in Caenorhabditis elegans assessed as reduction in worm mortality by measuring survival at 1/2 MIC by bright-field microscopic analysis (reference value: 24 hrs); assay type: functional
[5] = Inhibition of quorum sensing system in wildtype Pseudomonas aeruginosa PAO1 assessed as inhibition of pyocyanin production incubated for 24 hrs by absorbance based analysis
[6] = Inhibition of quorum sensing system in wildtype Pseudomonas aeruginosa PAO1 assessed as inhibition of rhamnolipid production incubated for 24 hrs by absorbance based microtiter plate reader analysis
Pseudomonas aeruginosa [7] = experiment: Antibiofilm activity against Pseudomonas aeruginosa PAO1 assessed as decrease in biofilm formation incubated for 24 hrs by LIVE/DEAD BacLight staining based 3D confocal laser scanning microscopy; assay type: functional, organism-based; conditions: dose 1-10 µM
[8] = Inhibition of quorum sensing system in wildtype Pseudomonas aeruginosa PAO1 assessed as inhibition of elastase production incubated for 24 hrs by elastin-congo red dye based absorbance assay
Pseudomonas aeruginosa [9] = experiment: Antibacterial activity against Pseudomonas aeruginosa PAO1 assessed as inhibition of bacterial growth at 0.1 to 50 uM measured upto 24 hrs by CLSI protocol based method; assay type: functional, organism-based; conditions: dose 0.1-50 µM
Pseudomonas aeruginosa [10] = experiment: Induction of Fe3+ chelating activity in Pseudomonas aeruginosa PAO1 assessed as increase in pyochelin production at 2.5 to 50 uM incubated for 24 hrs by fluorescence microplate reader; conditions: dose 2.5-50 µM
Pseudomonas aeruginosa [11] = experiment: Induction of Fe3+ chelating activity in Pseudomonas aeruginosa PAO1 assessed as increase in pyoverdine production at 2.5 to 50 uM incubated for 24 hrs by fluorescence microplate reader; conditions: dose 2.5-50 µM
[12] = Toxicity in Caenorhabditis elegans assessed as effect on survival at 100 uM measured at 48 hrs by bright-field microscopic analysis
[13] = Cytotoxicity against African green monkey Vero cells assessed as reduction in cell viability incubated for 24 hrs by MTT assay; assay type: toxicity, cell-based; conditions: chlorocebus sabaeus
[14] = Hemolytic activity in rabbit erythrocytes assessed as hemolysis rate at 200 uM incubated for 2 hrs by microplate reader analysis (reference value: 100 %); assay type: toxicity, cell-based, Oryctolagus cuniculus, Erythrocyte; conditions: read-out: Activity
[15] = Metal chelating activity assessed as Fe3+ chelation by measuring iron chelation constant by fluorescence competition assay

Compound | MIC (Pseudomonas aeruginosa [1]) [µM] | IC50 (Pseudomonas aeruginosa [2]) [µM] | also measured
Cc1cc(=O)c(O)c(CNCCCCCCCNc2ccnc3ccccc23)n1C | ≥ 512 | 13.2 | 
O=c1cc(CNCCCCCCCCNc2ccnc3cc(Cl)ccc23)n(O)cc1O | ≥ 512 | > 50 | 
COc1ccc2c(NCCCCCCCCNCc3c(O)c(=O)cc(C)n3C)ccnc2c1 | ≥ 512 | 16 | 
Cc1cc(=O)c(O)c(CNCCCCCCCCNc2ccnc3cc(F)ccc23)n1C | ≥ 512 | > 50 | 
Cc1cc(=O)c(OCc2ccccc2)c(CNCCCCCCCCNc2ccnc3cc(Cl)ccc23)[nH]1 | ≥ 512 | > 50 | 
Cc1cc(=O)c(O)c(CNCCCCCCCCNc2ccnc3ccccc23)n1C | ≥ 512 | 8.1 | 
CC[C@H]1OC(=O)[C@H](C)[C@@H](O[C@H]2C[C@@](C)(OC)[C@@H](O)[C@H](C)O2)[C@H](C)[C@@H](O[C@@H]2O[C@H](C)C[C@H](N(C)C)[C@H]2O)[C@](C)(O)C[C@@H](C)CN(C)[C@H](C)[C@@H](O)[C@]1(C)O [AZITHROMYCIN] |  | 6.6 | 
Cc1cc(=O)c(O)c(CNCCCCCCCCNc2ccnc3cc(C(F)(F)F)ccc23)n1C | ≥ 512 | 12.9 | 
Cc1cc(=O)c(O)c(CNCCCCCCCCNc2ccnc3ccc(Cl)cc23)n1C | ≥ 512 | 18.3 | 
Cc1cc(=O)c(O)c(CNCCCNc2ccnc3ccccc23)n1C | ≥ 512 | > 50 | 
POLYMYXIN B |  |  | Survival (Pseudomonas aeruginosa [3]): 18%; Survival (Pseudomonas aeruginosa [4]): 88 h
Cc1cc(=O)c(O)c(CNCCCCCCCCNc2ccnc3cc(Br)ccc23)n1C | ≥ 512 | > 50 | 
Cc1cc(=O)c(O)c(CNCCCCCCCCNc2ccnc3cc(Cl)ccc23)n1C | ≥ 512 | 5.4 | IC50 [5]: 23.7 µM; IC50 [6]: > 50 µM; Activity (Pseudomonas aeruginosa [7]): Dose-Dependent Effect; IC50 [8]: 30.9 µM; Activity (Pseudomonas aeruginosa [9]): inactive
CCCCCn1c(C)cc(=O)c(O)c1CNCCCCCCCCNc1ccnc2ccccc12 | ≥ 512 | 23.6 | 
CCn1c(C)cc(=O)c(O)c1CNCCCCCCCCNc1ccnc2ccccc12 | ≥ 512 | > 50 | 
CCCn1c(C)cc(=O)c(O)c1CNCCCCCCCCNc1ccnc2ccccc12 | ≥ 512 | > 50 | 
COCCn1c(C)cc(=O)c(O)c1CNCCCCCCCCNc1ccnc2ccccc12 | ≥ 512 | > 50 | 
Cn1cc(O)c(=O)cc1CNCCCCCCCCNc1ccnc2ccccc12 | ≥ 512 | > 50 | 
Cc1cc(=O)c(O)c(C(=O)NCCCCCCCCNc2ccnc3ccccc23)n1C | ≥ 512 | 13 | 
Cc1cc(=O)c(O)c(CNCCCCCCNc2ccnc3ccccc23)n1C | ≥ 512 | 16.2 | 
Cc1cc(=O)c(O)c(CNCCCCCCCCNc2ccnc3cccc(Cl)c23)n1C | ≥ 512 | > 50 | 
CCCCn1c(C)cc(=O)c(O)c1CNCCCCCCCCNc1ccnc2cc(Cl)ccc12 | ≥ 512 | 14.1 | 
Cc1cc(=O)c(O)c(CNCCNc2ccnc3ccccc23)n1C | ≥ 512 | > 50 | 

Compound | MIC (Pseudomonas aeruginosa [1]) [µM] | IC50 (Pseudomonas aeruginosa [2]) [µM] | also measured
CCCCn1c(C)cc(=O)c(O)c1CNCCCCCCCCNc1ccnc2ccccc12 | ≥ 512 | 8.9 | 
NC[C@H]1O[C@H](O[C@H]2[C@H](O)[C@@H](O[C@H]3O[C@H](CO)[C@@H](O)[C@H](N)[C@H]3O)[C@H](N)C[C@@H]2N)[C@H](N)C[C@@H]1O [TOBRAMYCIN] |  |  | Survival (Pseudomonas aeruginosa [3]): ~20%; Survival (Pseudomonas aeruginosa [4]): 72 h
Cc1cc(=O)c(O)c(CNCCCCCCNc2ccnc3cc(Cl)ccc23)n1C | ≥ 512 | 18.2 | 
NCCCCCCCCNc1ccnc2cc(Cl)ccc12 | ≥ 512 | > 50 | IC50 [5]: > 50 µM; Activity (Pseudomonas aeruginosa [10]): Active; Activity (Pseudomonas aeruginosa [11]): Active; IC50 [6]: > 50 µM; Activity [12]: Toxic; CC50 at 24 h [13]: 189 µM; hemolysis at 2 h, 200 µM [14]: < 1.5%; IC50 [8]: 43.5 µM
Cc1c(O)c(=O)ccn1C |  |  | pFe3+ [15]: 21.7
Cc1cc(=O)c(O)c(CNCCCCCCCCCCNc2ccnc3ccccc23)n1C | ≥ 512 | 32.6 | 
Cc1cc(=O)c(O)c(CNCCCCCCCCNc2ccnc(Cl)c2)n1C | ≥ 512 | > 50 | 
Cc1cc(=O)c(O)cn1CCCCCCCCNc1ccnc2ccccc12 | ≥ 512 | > 50 | 
Cc1cc(=O)c(O)cn1CCCCCCCCNc1ccnc2cc(Cl)ccc12 | ≥ 512 | 25.6 | 
CCCCCCCc1[nH]c2ccccc2c(=O)c1O |  |  | Activity (Pseudomonas aeruginosa [11]): Active
Cc1cc(=O)c(O)c(CNCCCCNc2ccnc3ccccc23)n1C | ≥ 512 | > 50 | 
Cc1cc(=O)c(O)c(CNCCCCCCCNc2ccnc3cc(Cl)ccc23)n1C | ≥ 512 | 9.4 | 
Cc1cc(=O)c(O)c(CNCCCCCCCCNc2ccnc3c(Cl)cccc23)n1C | ≥ 512 | > 50 | 
COc1ccc2c(NCCCCCCCCNC(=O)c3c(O)c(=O)cc(C)n3C)ccnc2c1 | ≥ 512 | > 50 | 
Cc1cc(=O)c(O)c(CNCCCCCCCCNc2ccncc2)n1C | ≥ 512 | > 50 | 
O=c1cc(CNCCCCCCCCNc2ccnc3ccccc23)n(O)cc1O | ≥ 512 | > 50 | 
Cc1cc(=O)c(O)c(CNCCCCCNc2ccnc3ccccc23)n1C | ≥ 512 | > 50 | 
CCCCCn1c(C)cc(=O)c(O)c1CNCCCCCCCCNc1ccnc2cc(Cl)ccc12 | ≥ 512 | > 50 | 
COc1ccc2c(NCCCCCCCCNCc3cc(=O)c(O)cn3C)ccnc2c1 | ≥ 512 | > 50 | 
Cn1cc(O)c(=O)cc1CNCCCCCCCCNc1ccnc2cc(Cl)ccc12 | ≥ 512 | > 50 | 
Cc1cc(=O)c(OCc2ccccc2)c(C(=O)NCCCCCCCCNc2ccnc3cc(Cl)ccc23)n1C | ≥ 512 | > 50 | Activity (Pseudomonas aeruginosa [10]): Active; Activity (Pseudomonas aeruginosa [11]): Active
Cc1cc(=O)c(O)c(CNCCCCCCCCCCNc2ccnc3cc(Cl)ccc23)n1C | ≥ 512 | > 50 | 
